According to patent EP1202975B1, “SUBSTITUTED POLYCYCLIC ARYL AND HETEROARYL PYRAZINONES USEFUL FOR SELECTIVE INHIBITION OF THE COAGULATION CASCADE” (Pharmacia Corporation, priority 1999, dated 2000):
Read-outs that look alike come from different tables or passages of the source.

What was measured:
[1] = molecular target: T1, TF-VIIa (Homo sapiens, UniProt P08709); test: TF-VIIa Assay; assay type: biochemical
T1 construct: 2nM recombinant human factor VIIa; purchased American Diagnostica, Greenwich CT; host or cells: soluble TF made in house in E. coli
T1 sequence (P08709 213-466 limits assumed): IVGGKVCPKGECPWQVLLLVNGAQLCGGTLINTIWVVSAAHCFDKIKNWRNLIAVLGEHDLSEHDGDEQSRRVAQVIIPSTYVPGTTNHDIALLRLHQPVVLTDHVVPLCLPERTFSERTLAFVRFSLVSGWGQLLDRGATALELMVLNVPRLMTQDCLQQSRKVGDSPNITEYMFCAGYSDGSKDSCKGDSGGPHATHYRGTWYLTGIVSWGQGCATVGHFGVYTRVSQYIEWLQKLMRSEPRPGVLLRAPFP
T1 sequence (P08709 61-212 limits assumed): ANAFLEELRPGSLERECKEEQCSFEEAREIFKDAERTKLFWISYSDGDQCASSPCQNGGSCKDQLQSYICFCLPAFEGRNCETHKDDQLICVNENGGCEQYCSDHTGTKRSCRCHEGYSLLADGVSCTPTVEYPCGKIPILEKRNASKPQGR
T1 sequence (P13726 33-251 partner limits assumed): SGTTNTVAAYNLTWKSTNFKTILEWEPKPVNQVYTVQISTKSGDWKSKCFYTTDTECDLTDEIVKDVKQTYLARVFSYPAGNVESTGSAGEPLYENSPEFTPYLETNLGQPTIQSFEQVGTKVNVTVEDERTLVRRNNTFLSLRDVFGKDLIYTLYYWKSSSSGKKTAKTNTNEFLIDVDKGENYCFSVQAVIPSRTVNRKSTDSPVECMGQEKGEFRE

[2] = molecular target: Human factor Xa (Homo sapiens, UniProt P00742)
Human factor Xa, sequence (P00742 235-488 limits assumed): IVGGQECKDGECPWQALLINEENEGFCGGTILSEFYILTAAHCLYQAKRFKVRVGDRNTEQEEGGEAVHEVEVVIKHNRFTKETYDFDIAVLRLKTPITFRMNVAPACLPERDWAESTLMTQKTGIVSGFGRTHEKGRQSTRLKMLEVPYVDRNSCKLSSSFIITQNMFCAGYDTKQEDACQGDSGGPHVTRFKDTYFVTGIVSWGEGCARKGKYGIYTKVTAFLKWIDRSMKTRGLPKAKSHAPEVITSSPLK
Human factor Xa, sequence (P00742 41-179 limits assumed): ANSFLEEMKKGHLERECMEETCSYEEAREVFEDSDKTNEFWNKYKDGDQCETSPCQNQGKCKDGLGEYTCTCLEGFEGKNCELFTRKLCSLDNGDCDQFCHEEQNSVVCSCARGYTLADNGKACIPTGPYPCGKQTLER

[3] = cells given as a plain number (IC50); read-out: IC50 or % Inhibition TF-VIIa (30 µM)
[4] = read-out: IC50 or % Inhibition TF-VIIa (30 µM); cells given as a plain number (IC50)

Row | Compound | IC50 [1, 3] [µM] | IC50 or % Inhibition Factor Xa (30 µM) [2] [%] | IC50 or % Inhibition TF-VIIa (30 µM) [1] [%] | IC50 [1, 4] [µM]
1 | N=C(N)c1ccc(CNC(=O)Cn2c(-c3ccccc3)c(Cl)nc(NCc3cc(F)cc(F)c3)c2=O)cc1 [1512-39] | 6 | 4 |  | 
2 | N=C(N)c1ccc(CNC(=O)Cn2c(-c3ccccc3)c(Cl)nc(NCc3ccccc3OC(F)(F)F)c2=O)cc1 [1512-42] |  | 1 |  | 25
3 | N=C(N)c1ccc(CNC(=O)Cn2c(-c3ccccc3)c(Cl)nc(NCc3c(F)cccc3C(F)(F)F)c2=O)cc1 [1512-44] |  | 6 | 43 | 
4 | CSCC(C(=O)NCc1ccc(C(=N)N)cc1)n1c(-c2ccccc2)c(Cl)nc(NCc2ccccc2)c1=O (stereo not drawn) [1517-04] |  | 0 |  | 5.7
5 | N=C(N)c1ccc(CNC(=O)Cn2c(-c3c(Cl)cccc3Cl)c(Cl)nc(NCc3ccccc3)c2=O)cc1 [1517-06] |  | 0 |  | 2.5
6 | N=C(N)c1ccc(CNC(=O)Cn2c(-c3ccsc3)c(Cl)nc(NC3CCC3)c2=O)cc1 [1517-07] |  | 0 |  | 0.4
7 | C[C@@H](C(=O)NCc1ccc(C(=N)N)cc1)n1c(-c2ccccc2)c(Cl)nc(NC2CCC2)c1=O [1517-09] |  | 0 |  | 2.6
8 | CSCC(C(=O)NCc1ccc(C(=N)N)cc1)n1c(-c2ccccc2)c(Cl)nc(NC2CCC2)c1=O (stereo not drawn) [1517-10] |  | 0 |  | 2
9 | C[C@H](C(=O)NCc1ccc(C(=N)N)cc1)n1c(-c2ccccc2)c(Cl)nc(NC2CCC2)c1=O [1517-11] |  | 0 |  | 3
10 | N=C(N)c1ccc(CNC(=O)Cn2c(-c3c(Cl)cccc3Cl)c(Cl)nc(NC3CCC3)c2=O)cc1 [1517-12] |  | 0 |  | 0.8
11 | N=C(N)c1ccc(CNC(=O)Cn2c(-c3ccsc3)c(Cl)nc(NCCc3ccccc3)c2=O)cc1 [1517-13] |  | 0 |  | 0.6
12 | CSCC(C(=O)NCc1ccc(C(=N)N)cc1)n1c(-c2ccccc2)c(Cl)nc(NCCc2ccccc2)c1=O (stereo not drawn) [1517-16] |  | 0 |  | 3.4
13 | C[C@H](C(=O)NCc1ccc(C(=N)N)cc1)n1c(-c2ccccc2)c(Cl)nc(NCCc2ccccc2)c1=O [1517-17] |  | 0 |  | 1.8
14 | N=C(N)c1ccc(CNC(=O)Cn2c(-c3c(Cl)cccc3Cl)c(Cl)nc(NCCc3ccccc3)c2=O)cc1 [1517-18] |  | 0 |  | 1.3

Continued, values first:

Row | IC50 [1, 3] [µM] | IC50 or % Inhibition Factor Xa (30 µM) [2] [%] | IC50 or % Inhibition TF-VIIa (30 µM) [1] [%] | IC50 [1, 4] [µM] | Compound
15 | 3.8 | 9 |  |  | N=C(N)c1ccc(CNC(=O)Cn2c(-c3ccccc3)c(Cl)nc(NCc3cc(F)ccc3F)c2=O)cc1 [1512-36]
16 |  | 3 | 40 |  | N=C(N)c1ccc(CNC(=O)Cn2c(-c3ccccc3)c(Cl)nc(NCc3cccc(OC(F)(F)F)c3)c2=O)cc1 [1512-40]
17 | 30 | 4 |  |  | N=C(N)c1ccc(CNC(=O)Cn2c(-c3ccccc3)c(Cl)nc(NCCc3cccc(C(F)(F)F)c3)c2=O)cc1 [1512-41]
18 |  | 9 |  | 11 | N=C(N)c1ccc(CNC(=O)Cn2c(-c3ccccc3)c(Cl)nc(NCc3c(F)cccc3F)c2=O)cc1 [1512-43]
19 |  | 11 | 27 |  | Cc1cc(Cl)cc(Cl)c1CNc1nc(Cl)c(-c2ccccc2)n(CC(=O)NCc2ccc(C(=N)N)cc2)c1=O [1512-45]
20 |  | 10 |  | 11.7 | CN1CCCC1CCNc1nc(Cl)c(-c2ccccc2)n(CC(=O)NCc2ccc(C(=N)N)cc2)c1=O (stereo not drawn) [1512-46]
21 |  | 13 |  | 3.5 | N=C(N)c1ccc(CNC(=O)Cn2c(-c3ccccc3)c(Cl)nc(NCCc3ccccn3)c2=O)cc1 [1512-47]
22 |  | 0 |  | 1.2 | N=C(N)c1ccc(CNC(=O)Cn2c(-c3ccsc3)c(Cl)nc(NCc3ccccc3)c2=O)cc1 [1517-01]
23 |  | 0 |  | 9 | C[C@@H](C(=O)NCc1ccc(C(=N)N)cc1)n1c(-c2ccccc2)c(Cl)nc(NCc2ccccc2)c1=O [1517-03]
24 |  | 0 |  | 4.6 | C[C@H](C(=O)NCc1ccc(C(=N)N)cc1)n1c(-c2ccccc2)c(Cl)nc(NCc2ccccc2)c1=O [1517-05]
25 |  | 0 | 43 |  | N=C(N)c1ccc(CNC(=O)C(Cc2ccccc2)n2c(-c3ccccc3)c(Cl)nc(NC3CCC3)c2=O)cc1 (stereo not drawn) [1517-08]
26 |  | 0 | 30 |  | N=C(N)c1ccc(CNC(=O)C(Cc2ccccc2)n2c(-c3ccccc3)c(Cl)nc(NCCc3ccccc3)c2=O)cc1 (stereo not drawn) [1517-14]
27 |  | 0 |  | 3.1 | C[C@@H](C(=O)NCc1ccc(C(=N)N)cc1)n1c(-c2ccccc2)c(Cl)nc(NCCc2ccccc2)c1=O [1517-15]
